Patent US5726156A, “Cytokine regulatory agents and methods of use in pathologies and conditions associated with altered cytokine levels” (Trega Biosciences, Inc., priority 1995, dated 1998)

How the values were obtained:
[1] = test system: TNF-α; assay: Reduction of LPS-induced TNF levels in mice (IP dosing); format: in vivo; settings: 30 μg/mouse IP, one min before LPS 5 mg/kg IP; vs untreated control mice
Description: Balb/c female mice weighing approximately 20 g were placed into two groups, a control group and a treated group. Five mg/kg of LPS in 0.9% saline was administered by intraperitoneal (IP) injection into the control mice. Mice in the treated group were first injected IP with 30 μg EX-2 or 150 μg EX-3 in saline, then, one min after EX-2 or EX-3 was administered, the mice received LPS as described for the control group.
Blood samples were collected from the orbital sinus of treated and control mice at various times up to four hr after LPS was administered. The plasma was separated by centrifugation at 3000×g for 5 min, then diluted with four volumes of 1× phosphate buffer saline (pH 7.4) containing 1% bovine serum albumin. A 100 μl sample of serum was assayed by ELISA for TNF-α (Genzyme; Cambridge Mass.).
The mean (+/- SEM) TNF-α level in six mice from each group was determined and the percent reduction in TNF levels was calculated.

[2] = test system: Interleukin-6 (IL-6); assay: Reduction of LPS-induced IL-6 levels in mice; format: in vivo; settings: 300 μg/mouse; LPS treated Balb/c mice
Description: Balb/c mice were grouped and treated as described in Example III, above. Blood samples were obtained from the orbital sinus at various times up to six hr and serum was collected and diluted as described above. A 100 μl aliquot was assayed for IL-6 levels using an IL-6-specific ELISA by a modification of the method of Starnes etal., J. Immunol. 145:4185-4194 (1990), which is incorporated herein by reference.
The mean (+/- SEM) IL-6 level in six mice from each group was determined and the percent reduction in IL-6 was calculated.

[3] = Reduction in body weight, Zucker fa/fa and Fa/+ rats; format: in vivo
Description: Adult Zucker fatty rats (fa/fa; 325-350 g) or non-obese Zucker rats (Fa/+; 250-275 g) each were divided into two groups. One group each of fa/fa and Fa/+ rats received intraperitoneal (ip) injections of 250 μg/kg EX-2, 3×/day, for 86 days, followed by 2×/day treatments for an additional 29 days. The other group of fa/fa and Fa/+rats received saline on the same schedule.
Administration of EX-2 caused a significant decrease in the weight gain of fa/fa and of Fa/+ rats (see FIG. 4). Specifically, saline treated fa/fa rats gained about 360 g during the […], whereas EX-2 treated fa/fa rats only gained 275 g, representing a 24% decrease in weight gain. […] In Fa/+ rats, the decreased weight gain was more modest, but again correlated to fat mass rather than lean muscle mass.
In other experiments, fa/fa rats received 0.5-10 mg/kg EX-2, 2×/day, for 14 days (1-20 mg/day). […] This weight loss correlated with […] consumption by the EX-2 treated rats as compared to the controls.

[4] = test system: arachidonic acid-induced ear swelling; assay: Arachidonic acid-induced ear swelling; format: in vivo, mice; settings: 100 μg/mouse IP 30 min prior to AA; 60 min after AA
Description: Experiments were performed using female Balb/c mice weighing 18-23 grams. Saline or 100 μg EX-2 or EX-3 was administered IP, 30 min prior to topical application of arachidonic acid (AA). A 10 μl pipet was used to apply 10 μl AA solution (100 mg/ml ethanol; Calbiochem-Novabiochem; San Diego Calif.) to the inner and outer surfaces of the right ear of each mouse. Ten μl ethanol, alone, was applied to the inner and outer surface of the left ear of each mouse. Ear thickness was measured with a hand-held spring loaded caliper immediately before and 60 min after AA application. Increase in ear thickness was calculated by subtracting the change observed in the control ear from the change observed in AA-treated ear. The value for each group (saline and control) is the average of the swelling observed in the individual mice in each group. The percent reduction of swelling is based on the swelling observed in the saline control group.

[5] = test system: LPS-induced PMN infiltration in lungs; assay: Adult respiratory distress syndrome: LPS-induced PMN count in broncho-alveolar lavage; format: in vivo, rats; settings: 100 μg/kg IP; broncho-alveolar lavage 6 hr after intratracheal LPS
Description: These experiments were performed using a modification of the methods described by Ulich et al., Am. J. Pathol. 141:61-68 (1992) and by Wheelden et al., Lab. Animals 26:29-37 (1992), each of which is incorporated herein by reference. Male Harlan Sprague-Dawley rats were anesthetized using a mixture of 70 mg/kg ketamine and 6 mg/kg rompun injected IP. A 2-3 cm incision was made in the neck of each anesthetized rat and its trachea was exposed by blunt dissection of the surrounding soft tissue. The rats were suspended on a near vertical slab and intratracheal injections were performed by inserting into the exposed trachea, at a point 1 cm posterior to the larynx, a 25G×1/2 inch needle attached to a 1 cc syringe.
Each rat received 0.5 ml/kg of saline or 0.5 ml/kg of 10 mg/ml (5 mg/kg) LPS endotoxin via slow intratracheal administration. Immediately following administration of the LPS endotoxin, rats were injected IP with 1 ml/kg of either saline (control) or saline containing various concentrations of EX-2 (treated). The rats were maintained in the elevated position for 1-2 min to facilitate distribution of the LPS and saline into the lung. The incisions were closed and the rats were allowed to recover. […]
The total polymorphonuclear leukocytes (PMN; neutrophits) in the broncho-alveolar lavage fluid were counted in the EX-2-treated rats and compared with the number in the control rats.

Substance: Ac-Nle-Gln-His-(D)Phe-Arg-(D)Trp-Gly-NH2 [EX-2]
- Reduction in TNF levels [1]: 50%
- Reduction in IL-6 levels [2]: 60%
- decreased weight gain ([3]; Fa/+ (non-obese) rats, 250 μg/kg ip): more modest
- epididymal fat pad weight ([3]; fa/fa rats, 250 μg/kg ip): decreased epididymal fat pad weight
- body weight gained ([3]; fa/fa rats, 250 μg/kg ip 3×/day then 2×/day, 105 day treatment, saline about 360 g): 275 g
- decrease in weight gain ([3]; fa/fa rats, 250 μg/kg ip, vs saline treated): 24%
- decrease in body weight ([3]; fa/fa rats, 20 mg EX-2/day (10 mg/kg 2×/day), 14 days): ~10%
- rate of weight gain ([3]; fa/fa rats, 0.5-10 mg/kg 2×/day, 14 days, each group): decreased rate of weight gain
- Reduction in arachidonic acid-induced Ear Swelling [4]: 72%
- Reduction in LPS-induced PMN Count [5]: 58%
